Data on 16 compounds can be found in PubChem BioAssay (NCI).

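Five concentrations, 48 hours, 96-well plates. TGI is the concentration that stops growth completely.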

Test systems include NCI-H522 lung; OVCAR-4 ovarian; RXF 393 renal; SF-295 CNS; SF-539 CNS; SK-MEL-2 melanoma; SK-MEL-28 melanoma; SN12C renal; SW-620 colon.
Common to all, as to assay: NCI-60 cell line screen, 48 h

For the compound `CN1CCC(=O)/C(=C/c2ccccc2)C1`, the TGI in the experiment with NCI-H522 lung came out at 33.6 µM; with OVCAR-4 ovarian it was 32.5 µM; in the experiment on RXF 393 renal, 26.8 µM; in the experiment on SF-295 CNS, 29.3 µM; in the experiment with SF-539 CNS, 33.3 µM; in the experiment on SK-MEL-2 melanoma, 42.1 µM. The TGI with SK-MEL-28 melanoma was 32.7 µM; with SN12C renal, 28.4 µM; in the experiment on SW-620 colon, 14.1 µM.
As to `CN(C)C(=S)/N=c1\sn(C)/c(=N\C(=S)N(C)C)n1C`, the TGI in the experiment on NCI-H522 lung, with OVCAR-4 ovarian, with RXF 393 renal, with SF-295 CNS, in the experiment on SF-539 CNS and in the experiment with SK-MEL-28 melanoma was above 100 µM in each case. The TGI in the experiment with SN12C renal and in the experiment on SW-620 colon was above 100 µM in each case.
Turning to `Cc1cc2c(=O)c3ccccc3[nH]c2c(C(N)=O)c1C`, the TGI in the experiment on NCI-H522 lung, with OVCAR-4 ovarian, with RXF 393 renal, in the experiment on SF-295 CNS, with SF-539 CNS and in the experiment with SK-MEL-2 melanoma was above 100 µM throughout. Also, the TGI with SK-MEL-28 melanoma, in the experiment with SN12C renal and in the experiment on SW-620 colon was above 100 µM each time.
With `CC12CCC(=O)C[C@H]1CCC(OC=O)C2Br` (stereo partly specified), the TGI in the experiment with NCI-H522 lung, with OVCAR-4 ovarian, in the experiment on SF-295 CNS, in the experiment on SF-539 CNS, in the experiment with SK-MEL-2 melanoma and in the experiment on SK-MEL-28 melanoma was above 100 µM in each case. Besides, the TGI with SN12C renal and in the experiment on SW-620 colon was above 100 µM in each case.
With `COC(=O)C(=Cc1cc(OC)c(OC)c(OC)c1-c1cc2c(cc1C1(C)OCCS1)OCO2)C(=O)OC` (stereo unspecified), the TGI in the experiment on NCI-H522 lung was 55.5 µM; in the experiment on RXF 393 renal it was above 100 µM; with SF-295 CNS, above 100 µM; in the experiment on SF-539 CNS, above 100 µM; in the experiment with SK-MEL-2 melanoma, 69.6 µM; in the experiment with SK-MEL-28 melanoma, above 100 µM. Further, the TGI in the experiment with SN12C renal and in the experiment with SW-620 colon was above 100 µM throughout.
Take `COc1cc(OC)c2c(=O)cc(-c3ccc(OC)c(OC)c3OC)oc2c1`: the TGI in the experiment with NCI-H522 lung, in the experiment on OVCAR-4 ovarian, in the experiment with RXF 393 renal, with SF-295 CNS, with SF-539 CNS and with SK-MEL-2 melanoma was above 100 µM throughout. Also, the TGI with SK-MEL-28 melanoma, in the experiment on SN12C renal and in the experiment on SW-620 colon was above 100 µM each time.
For `O=C1N=C2Sc3ccc4ccccc4c3N2C1=O`, the TGI was 32.7 µM with OVCAR-4 ovarian; 37 µM in the experiment on RXF 393 renal; 36.5 µM in the experiment on SF-295 CNS; 36.6 µM in the experiment on SF-539 CNS; 71.9 µM with SK-MEL-2 melanoma; 56.3 µM in the experiment with SK-MEL-28 melanoma. Besides, the TGI amounted to 43.8 µM in the experiment with SN12C renal and 49.1 µM in the experiment with SW-620 colon.
Turning to `O=C(/C(=C/c1ccc(Cl)cc1)c1ccccc1)c1ccccc1`, the TGI in the experiment with NCI-H522 lung came to 34.7 µM; in the experiment with OVCAR-4 ovarian, 66.9 µM; with SF-295 CNS, 39.7 µM; in the experiment with SF-539 CNS, 31.3 µM; in the experiment on SK-MEL-2 melanoma, 36.6 µM; with SK-MEL-28 melanoma it was 30.6 µM. In addition, the TGI with SN12C renal was found to be 31.7 µM; with SW-620 colon, 31.6 µM.
Take `COC(=O)/C(=C/c1ccc(OC)cc1)C(C(=O)O)=C1CCCC1`: the TGI in the experiment on NCI-H522 lung, in the experiment on OVCAR-4 ovarian, in the experiment on RXF 393 renal, in the experiment with SF-295 CNS, in the experiment with SF-539 CNS and with SK-MEL-2 melanoma was above 100 µM each time. The TGI in the experiment with SN12C renal and in the experiment with SW-620 colon was above 100 µM each time.
For `c1ccc2c(OCCSCCCCCCCCCCSCCOc3cccc4ccccc34)cccc2c1`, the TGI with NCI-H522 lung, in the experiment with RXF 393 renal, in the experiment with SF-295 CNS, in the experiment with SF-539 CNS, with SK-MEL-2 melanoma and in the experiment on SK-MEL-28 melanoma was above 100 µM each time. The TGI in the experiment on SN12C renal and in the experiment with SW-620 colon was above 100 µM throughout.
For the compound `Cc1ccccc1C(=O)c1cc(O)ccc1O`, the TGI in the experiment on NCI-H522 lung is 99.1 µM; in the experiment with OVCAR-4 ovarian it was above 100 µM; with RXF 393 renal, above 100 µM; in the experiment on SF-295 CNS it was above 100 µM; in the experiment on SF-539 CNS, above 100 µM; in the experiment with SK-MEL-2 melanoma it was above 100 µM. Moreover, the TGI with SN12C renal and in the experiment with SW-620 colon was above 100 µM each time.
Turning to `COc1c(O)c2c(=O)cc3c4c5c(cc(=O)c6c(O)c(OC)c(CC(C)O)c(c(c1CC(C)O)c24)c65)OCO3` (stereo unspecified), the TGI with NCI-H522 lung came out at 4.38 µM; in the experiment on OVCAR-4 ovarian, 2.74 µM; in the experiment with RXF 393 renal it was 4.03 µM; in the experiment with SF-295 CNS, 6.09 µM; with SF-539 CNS it was 4.31 µM; in the experiment on SK-MEL-2 melanoma, 3.57 µM. Besides, the TGI in the experiment on SK-MEL-28 melanoma turned out to be 4.23 µM; with SN12C renal it was 3.18 µM; in the experiment with SW-620 colon, 8.65 µM.
As to `O=C(CC1C(=O)Nc2ccccc2S1=O)Nc1cc(Cl)ccc1Cl` (stereo unspecified), the TGI with NCI-H522 lung, with RXF 393 renal, in the experiment on SF-295 CNS, in the experiment with SF-539 CNS, in the experiment with SK-MEL-2 melanoma and in the experiment with SK-MEL-28 melanoma was above 100 µM each time. Further, the TGI with SN12C renal and with SW-620 colon was above 100 µM throughout.
For `COc1ccc2c(c1OCC(=O)O)C(=O)C(CCC(=O)O)CC2` (stereo unspecified), the TGI in the experiment on OVCAR-4 ovarian, in the experiment on RXF 393 renal, in the experiment with SF-295 CNS, with SF-539 CNS, in the experiment with SK-MEL-28 melanoma and in the experiment on SN12C renal was above 100 µM in each case. The compound further returned a TGI with SW-620 colon above 100 µM.
As to `COCC(OC)C(CC=C(C#N)C#N)OC` (stereo unspecified), the TGI in the experiment on NCI-H522 lung, in the experiment on OVCAR-4 ovarian, in the experiment on SF-295 CNS, in the experiment on SF-539 CNS, with SK-MEL-2 melanoma and in the experiment on SK-MEL-28 melanoma was above 100 µM throughout. Further, the TGI in the experiment on SN12C renal and with SW-620 colon was above 100 µM throughout.
On to `C/C(CC(=O)Nc1ccc(C)c(C)c1)=N\N(c1ccccc1)c1ccccc1`, for which the TGI with NCI-H522 lung is 29.7 µM; with OVCAR-4 ovarian it was above 100 µM; in the experiment with RXF 393 renal, above 100 µM; in the experiment on SF-295 CNS, above 100 µM; in the experiment on SF-539 CNS it was above 100 µM; with SK-MEL-2 melanoma, above 100 µM. In addition, the TGI in the experiment with SK-MEL-28 melanoma and in the experiment with SN12C renal was above 100 µM each time.
